How the values were obtained:
Assay type in all cases: in vivo
[1] = test system: barnyardgrass (Echinochloa crusgalli); test: Example 6, Procedure II: Herbicide No. 1 + alachlor (No. 7) with antidotes
Outline: (§1)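 Herbicide No. 1 plus alachlor, with or without antidote, was applied in acetone and mixed into a silt loam soil layer covering corn and weed seedbeds. Containers received 0.6 cm overhead irrigation, then greenhouse sub-irrigation. Injury was rated as percent, averaged over duplicates; antidote effect is the injury difference without and with antidote.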

[2] = test system: velvetleaf (Abutilon theophrasti); test: as above
Outline: as §1

corn = test: Example 18, Procedure II: Herbicide No. 1 + ERADICANE (EPTC + R-25788) with auxiliary antidotes
Outline: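 Corn seeded in silt loam and covered with soil into which herbicide and antidote, in acetone, were mixed; EPTC given as ERADICANE (with R-25788) at 8.96 kg/ha. Overhead irrigation equal to 0.6 cm rainfall, then greenhouse sub-irrigation. Percent injury scored; antidote efficacy as injury difference with versus without antidote.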

[3] = test system: barnyardgrass (Echinochloa crusgalli); test: Example 10, Procedure II: Herbicide No. 1 + propachlor (No. 5) with antidotes
Outline: (§2)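 Herbicide No. 1 plus propachlor and antidote, each in acetone, incorporated into silt loam cover soil over seeded corn/weed beds; untreated and herbicide-only controls included. Initial overhead irrigation equal to 0.6 cm rainfall, then greenhouse sub-irrigation. Response scored as percent injury; safening taken as injury difference without versus with antidote.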

[4] = test system: velvetleaf (Abutilon theophrasti); test: as above
Outline: as §2

[5] = test system: barnyardgrass (Echinochloa crusgalli); test: Example 19, Procedure II: Herbicide No. 1 + ERADICANE EXTRA with added antidotes
Procedure: (§3) Containers were filled and compacted with a fumigated silt loam top soil to a depth of about 1.3 cm from the top of the container. A first container was designated as an untreated control, a second container was designated as a herbicide control, and a third container was designated as a herbicide + antidote test container. Each of the containers was seeded with a crop species. A measured amount of herbicide dispersed or dissolved in acetone was applied to a measured quantity of soil. To this same quantity of soil treated with herbicide, there was added a measured amount of antidote dispersed or dissolved in acetone. The quantity of soil treated with the herbicide and antidote was thoroughly mixed to incorporate the herbicide and antidote in the soil uniformly. The seed bed in the third container of soil was covered with the soil treated with the herbicide and antidote and the container was leveled. For each test series, the seed beds of the first and second containers were likewise covered by soil layers. the cover layer of the first container was not treated with herbicide or antidote.
(§4) The containers were then placed on a bench in a greenhouse and sub-irrigated as required for the duration of the test. […] Plant response is measured in terms of percent injury. Antidote efficacy is indicated as the difference in plant injury by the herbicide(s) without the antidote and with the antidote.
(§5) This procedure is the same as Procedure I, but modified in the manner that after incorporation of the chemicals (herbicide and antidote) the containers with the covered seedbed were treated with an initial overhead irrigation equivalent to 0.6 cm rainfall, then subsequently sub-irrigated as required on greenhouse benches.
(§6) In the series of greenhouse tests described below, for routine screening purposes the herbicide/antidote compositions were tested in crop/weed combinations involving corn as the crop and either or both of the weeds barnyardgrass (Echinochloa crusgalli), a monocotyledonous weed, and velvetleaf (Abutilon theophrasti), a dicotyledonous weed. In the tables below, these weeds are indicated by the symbols "BYG" and "VL", respectively.
(§7) In the test reported in this example, the herbicidal composition was similar to that used in Example 16 in that Herbicide No. 1 was combined with EPTC (Herbicide No. 4) as a co-herbicide and the antidotes included Nos. 1, 2, 7, 13 and 15. However, in this test the EPTC was introduced as a formulation of ERADICANE (EPTC + the antidote R-25788, i.e., Antidote No. 1) at an application rate of 8.96 kg/ha. Thus, in this test two antidotes were present, viz. R-25788 and one of the auxilliary antidotes, No. 2, 13 and 15.
(§8) The test reported in this example was performed in the same manner and with the same antidotes used in Example 18, the only difference being the substitution of the commercial herbicidal product ERADICANE® EXTRA for ERADICANE®. ERADICANE EXTRA is a formulation containing both an antidote, i.e., R-29148 (Antidote No. 5 herein), and an extender, dietholate.

[6] = test system: velvetleaf (Abutilon theophrasti); test: as above
Procedure: as §3, §4, §5, §6, §7, §8

[7] = test system: barnyardgrass (Echinochloa crusgalli); test: Example 7, Procedure II: Herbicide No. 1 + metolachlor (No. 12) with antidotes
Outline: (§9)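 Herbicide and antidote in acetone were mixed into silt loam soil used to cover seeded beds, followed by 0.6 cm overhead irrigation, then sub-irrigation in the greenhouse. Percent injury was scored against herbicide-alone and untreated controls, averaged over duplicates. Herbicide No. 1 was combined with metolachlor.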

[8] = test system: velvetleaf (Abutilon theophrasti); test: as above
Outline: as §9

[9] = test system: barnyardgrass (Echinochloa crusgalli); test: Example 21, Procedure II: Herbicide No. 1 + SUTAN PLUS (butylate + antidote) with antidotes
Procedure: as §3, §4, §5, §6
(§10) In this example, tests were conducted as in the preceding Examples 18-20, except here the co-herbicidal component was SUTAN® PLUS, a commercial product comprising as the active herbicidal ingredient the compound butylate (Herbicide No. 10) and an antidote […] (Antidote No. 1). Again, the antidotal compounds herein were Nos. 1, 2, 7, 13 and 15. Procedure II was used.

[10] = test system: velvetleaf (Abutilon theophrasti); test: as above
Procedure: as §3, §4, §5, §6, §10

[11] = Herbicide No.1 0.14 + No.7 4.48 kg/ha + antidote 2.24 kg/ha
[12] = Herbicide No.1 0.14 + No.7 4.48 kg/ha + antidote 8.96 kg/ha
[13] = Herbicide No.1 0.56 + No.7 4.48 kg/ha + antidote 2.24 kg/ha
[14] = Herbicide No.1 0.56 + No.7 4.48 kg/ha + antidote 8.96 kg/ha
[15] = Herbicide No.1 0.56 kg/ha + ERADICANE 8.96 kg/ha, antidote 2.24 kg/ha
[16] = Herbicide No.1 0.56 kg/ha + ERADICANE 8.96 kg/ha, antidote 8.96 kg/ha
[17] = Herbicide No.1 1.12 kg/ha + ERADICANE 8.96 kg/ha, antidote 2.24 kg/ha
[18] = Herbicide No.1 1.12 kg/ha + ERADICANE 8.96 kg/ha, antidote 8.96 kg/ha
[19] = Herbicide No.1 0.14 kg/ha + Herbicide No.5 4.48 kg/ha, antidote rate 2.24 kg/ha
[20] = Herbicide No.1 0.14 kg/ha + Herbicide No.5 4.48 kg/ha, antidote rate 8.96 kg/ha
[21] = Herbicide No.1 0.56 kg/ha + Herbicide No.5 4.48 kg/ha, antidote rate 2.24 kg/ha
[22] = Herbicide No.1 0.56 kg/ha + Herbicide No.5 4.48 kg/ha, antidote rate 8.96 kg/ha
[23] = Herbicide No.1 0.56 kg/ha + ERADICANE EXTRA 8.96 kg/ha, antidote 2.24 kg/ha
[24] = Herbicide No.1 0.56 kg/ha + ERADICANE EXTRA 8.96 kg/ha, antidote 8.96 kg/ha
[25] = Herbicide No.1 1.12 kg/ha + ERADICANE EXTRA 8.96 kg/ha, antidote 2.24 kg/ha
[26] = Herbicide No.1 1.12 kg/ha + ERADICANE EXTRA 8.96 kg/ha, antidote 8.96 kg/ha
[27] = Herbicide No.1 0.14 + No.12 3.36 kg/ha + antidote 2.24 kg/ha
[28] = Herbicide No.1 0.14 + No.12 3.36 kg/ha + antidote 8.96 kg/ha
[29] = Herbicide No.1 0.56 + No.12 3.36 kg/ha + antidote 2.24 kg/ha
[30] = Herbicide No.1 0.56 + No.12 3.36 kg/ha + antidote 8.96 kg/ha
[31] = Herbicide No.1 0.56 kg/ha + SUTAN + 8.96 kg/ha, antidote 2.24 kg/ha
[32] = Herbicide No.1 0.56 kg/ha + SUTAN + 8.96 kg/ha, antidote 8.96 kg/ha
[33] = Herbicide No.1 1.12 kg/ha + SUTAN + 8.96 kg/ha, antidote 2.24 kg/ha
[34] = Herbicide No.1 1.12 kg/ha + SUTAN + 8.96 kg/ha, antidote 8.96 kg/ha

## O=C1OC(=O)c2cccc3cccc1c23 [compound 2]
[1]; [11]
  % Injury BYG: 100%
[1]; [12]
  % Injury BYG: 100%
[1]; [13]
  % Injury BYG: 100%
[1]; [14]
  % Injury BYG: 100%
[2]; [11]
  % Injury VL: 70%
[2]; [12]
  % Injury VL: 75%
[2]; [13]
  % Injury VL: 90%
[2]; [14]
  % Injury VL: 90%
corn; [15]
  % Injury Corn: 15%
corn; [16]
  % Injury Corn: 25%
corn; [17]
  % Injury Corn: 20%
corn; [18]
  % Injury Corn: 20%
[3]; [19]
  % Injury BYG: 100%
[3]; [20]
  % Injury BYG: 99%
[3]; [21]
  % Injury BYG: 99%
[3]; [22]
  % Injury BYG: 99%
[4]; [19]
  % Injury VL: 60%
[4]; [20]
  % Injury VL: 80%
[4]; [21]
  % Injury VL: 75%
[4]; [22]
  % Injury VL: 80%
[5]; [23]
  % Injury BYG: 90%
[5]; [24]
  % Injury BYG: 90%
[5]; [25]
  % Injury BYG: 85%
[5]; [26]
  % Injury BYG: 85%
[6]; [23]
  % Injury VL: 75%
[6]; [24]
  % Injury VL: 75%
[6]; [25]
  % Injury VL: 85%
[6]; [26]
  % Injury VL: 75%
[7]; [27]
  % Injury BYG: 100%
[7]; [28]
  % Injury BYG: 100%
[7]; [29]
  % Injury BYG: 100%
[7]; [30]
  % Injury BYG: 100%
[8]; [27]
  % Injury VL: 75%
[8]; [28]
  % Injury VL: 75%
[8]; [29]
  % Injury VL: 80%
[8]; [30]
  % Injury VL: 85%
[9]; [31]
  % Injury BYG: 5%
[9]; [32]
  % Injury BYG: 10%
[9]; [33]
  % Injury BYG: 45%
[9]; [34]
  % Injury BYG: 5%
[10]; [31]
  % Injury VL: 55%
[10]; [32]
  % Injury VL: 65%
[10]; [33]
  % Injury VL: 70%
[10]; [34]
  % Injury VL: 70%

## O=C(C(Cl)Cl)N1CCOC12CCCCC2 [compound 7]
[1]; [11]
  % Injury BYG: 100%
[1]; [12]
  % Injury BYG: 100%
[1]; [13]
  % Injury BYG: 100%
[1]; [14]
  % Injury BYG: 100%
[2]; [11]
  % Injury VL: 75%
[2]; [12]
  % Injury VL: 75%
[2]; [13]
  % Injury VL: 90%
[2]; [14]
  % Injury VL: 90%
corn; [15]
  % Injury Corn: 15%
corn; [16]
  % Injury Corn: 20%
corn; [17]
  % Injury Corn: 15%
corn; [18]
  % Injury Corn: 10%
[3]; [19]
  % Injury BYG: 99%
[3]; [20]
  % Injury BYG: 98%
[3]; [21]
  % Injury BYG: 98%
[3]; [22]
  % Injury BYG: 96%
[4]; [19]
  % Injury VL: 70%
[4]; [20]
  % Injury VL: 75%
[4]; [21]
  % Injury VL: 95%
[4]; [22]
  % Injury VL: 80%
[5]; [23]
  % Injury BYG: 85%
[5]; [24]
  % Injury BYG: 85%
[5]; [25]
  % Injury BYG: 90%
[5]; [26]
  % Injury BYG: 85%
[6]; [23]
  % Injury VL: 75%
[6]; [24]
  % Injury VL: 80%
[6]; [25]
  % Injury VL: 75%
[6]; [26]
  % Injury VL: 85%
[7]; [27]
  % Injury BYG: 100%
[7]; [28]
  % Injury BYG: 100%
[7]; [29]
  % Injury BYG: 100%
[7]; [30]
  % Injury BYG: 100%
[8]; [27]
  % Injury VL: 70%
[8]; [28]
  % Injury VL: 65%
[8]; [29]
  % Injury VL: 85%
[8]; [30]
  % Injury VL: 85%
[9]; [31]
  % Injury BYG: 25%
[9]; [32]
  % Injury BYG: 10%
[9]; [33]
  % Injury BYG: 40%
[9]; [34]
  % Injury BYG: 10%
[10]; [31]
  % Injury VL: 45%
[10]; [32]
  % Injury VL: 65%
[10]; [33]
  % Injury VL: 65%
[10]; [34]
  % Injury VL: 45%

— patent EP0603240B1, “SAFENING HERBICIDAL PYRAZOLYLSULFONYLUREAS” (priority 1991, dated 1993)
